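Grown in 96-well plates, cells were treated for 48 hours with each compound at five concentrations. Insufficient inhibition: endpoint recorded as highest concentration tested. Here, GI50 denotes the concentration required for 50% inhibition of growth. Definition used: TGI = concentration required for complete inhibition of growth.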
Key:
Assay in all cases: inhibition of tumour cell growth, NCI panel, 48 h
HCT-116 colon = tested on: HCT-116 colon
HT29 colon = tested on: HT29 colon
KM12 colon = tested on: KM12 colon
NCI-H23 lung = tested on: NCI-H23 lung
RPMI-8226 leukemia = tested on: RPMI-8226 leukemia
SF-295 CNS = tested on: SF-295 CNS
SK-OV-3 ovarian = tested on: SK-OV-3 ovarian
EKVX NSCLC = tested on: EKVX NSCLC
MDA-N = tested on: MDA-N
OVCAR-3 ovarian = tested on: OVCAR-3 ovarian

SMILES | TGI (HCT-116 colon) [µM] | TGI (HT29 colon) [µM] | TGI (KM12 colon) [µM] | TGI (NCI-H23 lung) [µM] | TGI (RPMI-8226 leukemia) [µM] | TGI (SF-295 CNS) [µM] | TGI (SK-OV-3 ovarian) [µM] | TGI (EKVX NSCLC) [µM] | TGI (MDA-N) [µM] | TGI (OVCAR-3 ovarian) [µM] | GI50 (EKVX NSCLC) [µM] | GI50 (HCT-116 colon) [µM] | GI50 (HT29 colon) [µM] | GI50 (KM12 colon) [µM] | GI50 (NCI-H23 lung) [µM] | GI50 (OVCAR-3 ovarian) [µM] | GI50 (RPMI-8226 leukemia) [µM] | GI50 (SF-295 CNS) [µM] | GI50 (SK-OV-3 ovarian) [µM]
O=C1c2cccc(O)c2C(=O)c2c(O)cc(CO)cc21 | > 100 | > 100 | > 100 | > 100 | > 100 | > 100 | > 100 | – | – | – | – | – | – | – | – | – | – | – | –
O=[N+]([O-])/C(Cl)=C(\NCCN/C(C(Cl)=C(Cl)Cl)=C(/Cl)[N+](=O)[O-])C(Cl)=C(Cl)Cl | > 100 | – | > 100 | > 100 | 65.8 | > 100 | > 100 | > 100 | > 100 | > 100 | – | – | – | – | – | – | – | – | –
C[C@H]1OC(=O)[C@@H]2N=NN(Cc3ccccc3)[C@H]12 | > 100 | > 100 | > 100 | > 100 | > 100 | > 100 | > 100 | – | > 100 | > 100 | – | – | – | – | – | – | – | – | –
CC(C)C(N)C(=O)NC(CCC(=O)NCCCCC(N)C(=O)NCCCNc1ccc([N+](=O)[O-])c2[nH]c3ccccc3c(=O)c12)C(N)=O (stereo not given) | > 100 | – | > 100 | > 100 | > 100 | > 100 | > 100 | > 100 | – | > 100 | – | – | – | – | – | – | – | – | –
Clc1ccc(/C(=C\c2ccccc2)Cn2ccnc2)cc1 | 29.1 | 30.1 | 20.7 | > 100 | 73.7 | 49.4 | 36.3 | 68.4 | 39 | – | – | – | – | – | – | – | – | – | –
O=C(NN1C(=O)CSC1c1cccc(F)c1)c1ccncc1 (stereo not given) | – | > 100 | > 100 | > 100 | > 100 | > 100 | > 100 | > 100 | – | – | – | – | – | – | – | – | – | – | –
COC(=O)N1N=C(c2ccccc2)C1c1ccccc1 (stereo not given) | > 100 | > 100 | > 100 | 88 | > 100 | – | > 100 | > 100 | > 100 | > 100 | – | – | – | – | – | – | – | – | –
CSc1nc2c(ncn2C2OC(CO)C(O)C(O)C2O)c(=O)[nH]1 (stereo not given) | > 100 | > 100 | > 100 | > 100 | > 100 | > 100 | > 100 | > 100 | – | > 100 | – | – | – | – | – | – | – | – | –
O=C(O)/C=C\C(=O)Nc1ccc(S(=O)(=O)c2ccc(NC(=O)/C=C\C(=O)O)cc2)cc1 | > 100 | > 100 | > 100 | > 100 | > 100 | > 100 | > 100 | > 100 | – | > 100 | – | – | – | – | – | – | – | – | –
C=CC(=O)N1C/C(=C\c2ccc(Cl)cc2)C(=O)/C(=C/c2ccc(Cl)cc2)C1 | 0.257 | 0.326 | 0.866 | 2.15 | – | 0.917 | 1.71 | 4.72 | 0.515 | 1.03 | – | – | – | – | – | – | – | – | –
CCN(CCCl)c1cc(CN(C)C)cc(NC(=O)c2ccc(C(=O)Nc3cccc(CN(C)C)c3)cc2)c1 | 14.4 | 6.87 | 3.69 | 11.2 | 8.73 | 13.2 | > 100 | – | 0.685 | – | – | – | – | – | – | – | – | – | –
COP(=O)(OC)C(Nc1ccc(Cc2ccc(NC(c3ccco3)P(=O)(OC)OC)cc2)cc1)c1ccco1 (stereo not given) | > 100 | > 100 | > 100 | 44.5 | – | 82.2 | 73.6 | 94.4 | > 100 | > 100 | – | – | – | – | – | – | – | – | –
CCN(CC)CCO/N=C1\CC[C@H]2[C@@H]3CCc4cc(OC)ccc4[C@H]3CC[C@]12C | 2.92 | 2.07 | 5.86 | 18.6 | 4.26 | 3.78 | – | 9.76 | 3.66 | 15.5 | – | – | – | – | – | – | – | – | –
COc1ccc(-n2nc(C)c3c(Nc4ccc(NC(=O)Nc5ccc(Cl)c(C(F)(F)F)c5)cc4)ncnc32)cc1 | 3.35 | 4.17 | 3.96 | 3.95 | 4.21 | 3.49 | 6.27 | 5.55 | – | 5.91 | 2.19 | 1.21 | 1.8 | 1.48 | 1.69 | 1.98 | 1.34 | 1.58 | 2.42
O=C1OC(c2ccccc2)N(C(=O)c2ccccc2)C1Cc1ccc(OCc2ccccc2)cc1 (stereo not given) | > 100 | – | – | > 100 | > 100 | – | > 100 | > 100 | > 100 | – | – | – | – | – | – | – | – | – | –
Nc1ccc(-c2nn3c(COc4ccc(Cl)cc4)nnc3s2)cc1 | > 100 | > 100 | > 100 | > 100 | > 100 | > 100 | > 100 | > 100 | – | > 100 | – | 34.8 | – | 99.5 | – | – | – | – | –
O=[N+]([O-])c1ccc2c(c1)c(N=NC(=S)Nc1ccc(Cl)cc1)c(O)n2CN1CCOCC1 | 15.7 | – | 24 | 9.44 | – | 18.3 | 26.2 | – | – | 17.6 | – | – | – | – | – | – | – | – | –
CN1CCN(C2=C(Cl)C3(OCCS3)C(F)(F)C2(F)F)CC1 (stereo not given) | > 100 | > 100 | – | > 100 | > 100 | > 100 | > 100 | > 100 | > 100 | > 100 | – | – | – | – | – | – | – | – | –
O=C(CC(=O)Nc1ccccc1)NNC(c1cc(N=Nc2ccc(Br)cc2)ccc1O)P(O)O (stereo not given) | 5.64 | > 10 | > 10 | > 10 | > 10 | > 10 | > 10 | – | > 10 | > 10 | – | – | – | – | – | – | – | – | –
COc1cc([N+](=O)[O-])c(OC)c2c(Nc3ccc(S(=O)(=O)O)c4cc(S(=O)(=O)O)cc(S(=O)(=O)O)c34)cc(C)nc12 | > 100 | > 100 | > 100 | > 100 | – | – | > 100 | > 100 | > 100 | > 100 | – | – | – | – | – | – | – | – | –
CC1(C)OC2COC3([C@@H]4OC(C)(C)O[C@@H]4CO)OC(C)(C)OC3C2O1 (stereo not given in full) | > 100 | – | > 100 | > 100 | > 100 | > 100 | – | > 100 | > 100 | > 100 | – | – | – | – | – | – | – | – | –
CC1(C)N=C2C(=O)c3c([nH]c4ccccc34)[C@]3(C)CCC1CC23 (stereo not given in full) | > 6.25 | > 6.25 | > 6.25 | > 6.25 | > 6.25 | > 6.25 | – | > 6.25 | > 6.25 | > 6.25 | – | – | – | – | – | – | – | – | –

Reference: PubChem BioAssay (NCI)
